Measured values reported in US9067894B1, “Compound, composition, and method of activating GIRK potassium channel and use of same for treating conditions of interest” (Vanderbilt University, priority 2013, dated 2015).

Key:
Neuropeptide Y (Y2) = target: T1, Neuropeptide Y (Y2) (Homo sapiens, UniProt P49146); assay: Radioligand displacement (Ricerca); format: binding
T1 construct: Ricerca (contract laboratory that ran the panel)

Transporter, SERT = target: T2, Transporter, SERT (Homo sapiens, UniProt P31645); assay: Radioligand displacement (Ricerca); format: binding
T2 construct: Ricerca (contract panel)

GIRK2 = target: T3, GIRK2 (Homo sapiens, UniProt P48051); assay: Whole-cell voltage-clamp, GIRK2-expressing HEK-293 cells; format: cell-based; settings: cell line GIRK2
T3 construct: expressed in transfected cells; host or cells: HEK-293
T3 sequence (P48051 1-423): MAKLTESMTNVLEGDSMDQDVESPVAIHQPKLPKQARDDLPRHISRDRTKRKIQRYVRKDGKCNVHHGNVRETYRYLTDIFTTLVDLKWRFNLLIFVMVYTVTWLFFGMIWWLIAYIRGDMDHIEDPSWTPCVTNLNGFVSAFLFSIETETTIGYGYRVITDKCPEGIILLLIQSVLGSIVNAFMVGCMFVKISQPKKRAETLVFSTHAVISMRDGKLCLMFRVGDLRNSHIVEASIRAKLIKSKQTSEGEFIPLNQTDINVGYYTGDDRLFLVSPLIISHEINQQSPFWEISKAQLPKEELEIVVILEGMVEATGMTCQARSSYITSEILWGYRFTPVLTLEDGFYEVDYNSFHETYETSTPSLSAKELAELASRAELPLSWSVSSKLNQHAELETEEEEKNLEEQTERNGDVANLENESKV
Source text: Cell Line Construction and Cell Culture. HEK-293 cells co-expressing human GIRK1/2 and rat mGlu8 were generated as previously described (Niswender et al., 2008). A HEK-293 cell line (ATCC, Manassas, Va.) expressing human GIRK1 and human GIRK2 was constructed by transfecting HEK-293 cells with GIRK1 and GIRK2 (Origene, Rockville, Md.) cloned into the pBudCE4.1 vector (Life Technologies, Carlsbad, Calif.) using FuGene 6 (Promega, Madison, Wis.) transfection reagent. […]
A single-cell suspension of HEK-293 cells stably transfected with the appropriate ion channels were plated into TC-treated 35 mm polystyrene dishes at ˜15% confluence and incubated overnight in a 5% CO2 cell culture incubator at 37° C. […] Whole cell currents were recorded in 20K extracellular solution at −70 mV using a Pico 1 amplifier (Tecella, Foothill Ranch, Calif.) controlled by WINWCP 4.X (University of Strathclyde, Glasgow, Scotland, UK). […] One day after transfection, cells were plate into 35 mm polystyrene dishes, incubated and recorded as described above. […]
Voltage-clamp data were analyzed by converting current amplitudes to current density by dividing by each cell's membrane capacitance estimated from capacitance compensation. […]

Bradykinin B2 = target: T4, Bradykinin B2 (Homo sapiens, UniProt P30411); assay: Radioligand displacement (Ricerca); format: binding
T4 construct: Ricerca
T4 sequence (P30411 whole entry): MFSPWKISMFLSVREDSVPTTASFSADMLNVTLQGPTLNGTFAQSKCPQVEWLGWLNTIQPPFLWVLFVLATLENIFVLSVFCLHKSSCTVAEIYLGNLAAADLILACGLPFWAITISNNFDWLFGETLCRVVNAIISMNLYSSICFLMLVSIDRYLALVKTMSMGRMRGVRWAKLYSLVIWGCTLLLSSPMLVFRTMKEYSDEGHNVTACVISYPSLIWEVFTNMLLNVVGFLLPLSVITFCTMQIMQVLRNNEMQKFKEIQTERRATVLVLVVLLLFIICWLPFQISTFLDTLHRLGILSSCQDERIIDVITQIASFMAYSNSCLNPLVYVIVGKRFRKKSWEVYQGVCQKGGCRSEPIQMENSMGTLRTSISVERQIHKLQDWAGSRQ

T2 sequence (P31645 whole entry): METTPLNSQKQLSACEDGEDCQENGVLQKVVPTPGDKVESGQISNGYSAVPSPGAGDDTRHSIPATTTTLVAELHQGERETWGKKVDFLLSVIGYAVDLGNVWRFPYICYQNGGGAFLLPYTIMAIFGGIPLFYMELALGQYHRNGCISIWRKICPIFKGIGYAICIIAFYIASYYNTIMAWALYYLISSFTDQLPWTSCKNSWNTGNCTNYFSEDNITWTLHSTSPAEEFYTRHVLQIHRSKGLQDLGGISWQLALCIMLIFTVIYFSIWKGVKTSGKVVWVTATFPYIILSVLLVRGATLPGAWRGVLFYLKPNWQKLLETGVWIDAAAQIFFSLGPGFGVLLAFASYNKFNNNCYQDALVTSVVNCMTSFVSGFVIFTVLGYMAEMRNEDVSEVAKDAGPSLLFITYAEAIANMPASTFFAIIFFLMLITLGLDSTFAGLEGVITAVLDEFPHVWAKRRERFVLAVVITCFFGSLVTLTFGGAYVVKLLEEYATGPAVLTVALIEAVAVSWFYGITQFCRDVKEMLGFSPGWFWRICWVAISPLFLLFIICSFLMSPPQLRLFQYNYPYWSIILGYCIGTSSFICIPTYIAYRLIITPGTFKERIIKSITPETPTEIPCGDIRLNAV
T1 sequence (P49146 whole entry): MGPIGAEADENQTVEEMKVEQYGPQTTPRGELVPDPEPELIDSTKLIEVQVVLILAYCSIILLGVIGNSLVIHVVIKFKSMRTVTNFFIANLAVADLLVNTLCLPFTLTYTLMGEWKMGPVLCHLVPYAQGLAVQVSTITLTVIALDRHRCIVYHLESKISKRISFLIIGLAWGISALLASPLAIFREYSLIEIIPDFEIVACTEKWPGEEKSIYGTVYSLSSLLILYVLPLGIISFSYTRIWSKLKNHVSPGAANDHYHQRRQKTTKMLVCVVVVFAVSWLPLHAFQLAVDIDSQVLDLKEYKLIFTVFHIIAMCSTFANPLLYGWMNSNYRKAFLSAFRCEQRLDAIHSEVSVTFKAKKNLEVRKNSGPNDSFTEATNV

Cc1cc(NC(=O)Nc2ccc(F)c(F)c2)n(-c2ccccc2)n1 [VU0456810, 1-(3,4-difluorophenyl)-3-(3-methyl-1-phenyl-1H-pyrazol-5-yl)urea]
inhibition at 10 µM (Neuropeptide Y (Y2)): -5% | inhibition at 10 µM (Transporter, SERT): -1% | EC50 Voltage Clamp (GIRK2): Inactive | inhibition at 10 µM (Bradykinin B2): -1%
